This note sets out measurements from patent publication US8298991B2, “Method for controlling undesired mimosoideae vegetation” (E I du Pont de Nemours and Company, priority 2008, dated 2012).

Test [1] has as its system honey mesquite (Prosopis glandulosa). The experiment in a line: Test B: field study, control of natural stands of honey mesquite. It is filed as in vivo. The following applies: for % Control Site 1 Observed: Site 1, 12 months after application, 94 L/ha; for % Control Site 1 Observed / % Control Site 2 Observed: % dead trees, g ai/ha: Compound 1 125, triclopyr (a.e., as butotyl ester) 280; for % Control Site 2 Observed: Site 2, 10 months after application, 140 L/ha. The method, then: A field study was conducted to evaluate the efficacy of 125 g/ha of Compound 1 and 280 g/ha of triclopyr (in the form of the butoxyethyl ester of triclopyr, i.e. triclopyr-butotyl), separately and in combination, for controlling natural stands of honey mesquite (Prosopis glandulosa) on ranches in western Texas. Compound 1 was in the form of an 80% wettable granule formulation. Triclopyr was provided by GARLON® 4 or REMEDY®, which are emulsifiable concentrate formulations containing 44.3% or 61.6% of triclopyr-butotyl, respectively.
The trial design was a large block, single replicate test. Each test used rectangular test plots measuring 3 m by 9 m and incorporating at least 10 mesquite plants per plot. The formulated herbicides were diluted with water, and 1% by volume of methylated seed oil was added, to provide volumes of spray mixtures corresponding to a rate of 94 L/ha at Site 1 and 140 L/ha at Site 2. The treatments were applied using flat fan nozzles on an elevated spray boom moved across the plots by an all-terrain vehicle or small tractor. The elevated spray boom and relatively low spray volumes simulated aerial (e.g., helicopter or fixed wing aircraft) applications.
In each plot 10 mesquite trees were identified with a metal tag for evaluation. The effects of the herbicide treatments were evaluated 12 months after application at Site 1 and 10 months after application at Site 2. Visual evaluations were used to rate the herbicidal effect of the various treatments. A tree was considered alive if any foliage was present within the tree canopy area or if any new growth (i.e. sprouts) emerged from the base of the tree.
Expected results were calculated using the Colby Equation. Colby's equation (S. R. Colby, “Calculating Synergistic and Antagonistic Responses of Herbicide Combinations,” Weeds, 15(1), pp 20-22 (1967)) calculates the expected additive effect of herbicidal mixtures, and for two active ingredients is of the form: Pa+b=Pa+Pb−(PaPb/100) wherein • Pa+b is the percentage effect of the mixture expected from additive contribution of the individual components, • Pa is the observed percentage effect of the first active ingredient at the same use rate as in the mixture, and • Pb is the observed percentage effect of the second active ingredient at the same use rate as in the mixture.

The subject of test [2] is huisache (Acacia farnesiana). The experiment in a line: Test A: field study, control of a natural stand of huisache. It is filed as in vivo. To be noted: for % Defoliation 62 DAA: 62 days after application, vs control plot, foliar spray with 1% methylated seed oil, g ai/ha: Compound 1 250, fosamine-ammonium 6688, imazapyr (a.e.) 280, metsulfuron-methyl 42, alone or combined; for % Control 229 DAA: 229 days after application; for % Control 229 DAA / % Control 745 DAA / % Control 543 DAA / % Control 656 DAA: % of trees with no green foliage or regrowth, g ai/ha: Compound 1 250, fosamine-ammonium 6688, imazapyr 280, metsulfuron-methyl 42; for % Control 745 DAA: 745 days after application; for % Control 543 DAA: 543 days after application; for % Control 656 DAA: 656 days after application. The method, then:
A field study was conducted to evaluate the efficacy of 250 g/ha of Compound 1, 6.7 kg/ha of fosamine-ammonium (i.e. ammonium salt of fosamine), 280 g/ha of imazapyr (provided in the form of the isopropylammonium salt of imazapyr) and 42 g/ha of metsulfuron-methyl, separately and in combination, for controlling a natural stand of huisache (Acacia farnesiana) on a ranch in southeastern Texas. Compound 1 was in the form of a wettable granule formulation containing 80% by weight of Compound 1. Fosamine-ammonium was provided by KRENITE® S, which is a water-soluble liquid formulation containing 41.5% of fosamine-ammonium. Imazapyr was provided by ARSENAL®, which is a water-soluble liquid formulation containing 28.7% of imazapyr-isopropylammonium (equivalent to 22.6% of imazapyr, i.e. imazapyr acid equivalent). Metsulfuron-methyl was provided by ESCORT® XP, which is a wettable granule formulation containing 60% of metsulfuron-methyl.
The trial design was a large block, single replicate field study using rectangular test plots measuring 12.8 m by 22.9 m. The huisache trees in the test plots averaged 2.4 m tall and were estimated to be approximately 20 years old. The formulated herbicides were diluted with water and 1% by volume of methylated seed oil was added to provide about 27.4 L of spray mixture. The treatments were applied in early autumn using a high-volume handgun sprayer projecting the spray mixture upward and across a plot in a slow back and forth motion while traversing the plot lengthwise. This produced a rainfall-like spray covering both the huisache trees and ground between trees in the plots. The volume of spray mixture used (corresponding to 935 L/ha) was sufficient to thoroughly wet the foliage of the huisache trees with relatively little drip or run off under the trees.
The effects of the herbicide treatments were visually evaluated. At 62 days after application (DAA), the percentage of defoliation in comparison to a control plot was observed. Then at 229, 543, 656 and 745 days after application % control was calculated based on the percentage of trees showing no green foliage or regrowth.

On to `COC(=O)c1nc(C2CC2)nc(N)c1Cl` [Compound 1, methyl 6-amino-5-chloro-2-cyclopropyl-4-pyrimidine-carboxylate], for which, in test [1], the “% Control Site 1 Observed” value was determined as 60% and the “% Control Site 2 Observed” value was found to be 60%. Also, in test [1] (both sites, Compound 1 125 g/ha, triclopyr 280 g/ha), the “long-term control of honey mesquite (text summary over Sites 1 and 2)” value is reported as 60%. In test [2], the “% Defoliation 62 DAA” value is 100%, the “% Control 229 DAA” value came out at 91% and the “% Control 745 DAA” value was found to be 33%.

Regarding `O=C(O)COc1nc(Cl)c(Cl)cc1Cl` [Triclopyr, [(3,5,6-trichloro-2-pyridyl)oxy]acetic acid], in test [1], the “% Control Site 1 Observed” value came out at 0% and the “% Control Site 2 Observed” value came out at 30%.

Consider `COC(=O)c1ccccc1S(=O)(=O)NC(=O)Nc1nc(C)nc(OC)n1` [Metsulfuron-methyl, methyl 2-[[[[(4-methoxy-6-methyl-1,3,5-triazin-2-yl)amino]carbonyl]amino]sulfonyl]benzoate], for which, in test [2], the “% Defoliation 62 DAA” value was determined as 85%, the “% Control 229 DAA” value is listed as 11%, the “% Control 543 DAA” value turned out to be 0% and the “% Control 656 DAA” value is 0%. Besides, the “% Control 745 DAA” value in test [2] is 0%.

Regarding `CCOP(=O)(O)C(N)=O` [Fosamine, ethyl hydrogen (aminocarbonyl)phosphonate], in test [2], the “% Defoliation 62 DAA” value is 75%, the “% Control 229 DAA” value turned out to be 0%, the “% Control 543 DAA” value came out at 0% and the “% Control 656 DAA” value amounted to 0%. In addition, the “% Control 745 DAA” value in test [2] is 0%.

With `CC(C)C1(C)N=C(c2ncccc2C(=O)O)NC1=O` (racemic) [Imazapyr, (±)-2-[4,5-dihydro-4-methyl-4-(1-methylethyl)-5-oxo-1H-imidazol-2-yl]-3-pyridinecarboxylic acid], in test [2], the “% Defoliation 62 DAA” value came to 70%, the “% Control 229 DAA” value turned out to be 9%, the “% Control 543 DAA” value is 0% and the “% Control 656 DAA” value came out at 0%. In test [2], the “% Control 745 DAA” value was 0%.
